Experiment [1] deals with Acinetobacter baumannii. Nature of the experiment: Antibacterial activity against Acinetobacter baumannii ATCC 19606 after 18 hrs by broth microdilution method. The format is functional. The following applies: ATCC 19606 = CIP 70.34 = JCM 6841, 18 h. On the technique in general: Broth dilution looks for growth in wells or tubes with falling amounts of substance.
The subject of experiment [2] is Acinetobacter baumannii. Nature of the experiment: Antibacterial activity against Acinetobacter baumannii ATCC 19606 infected in mouse assessed as reduction in bacterial count in blood at 4 mg/kg, ip measured after 4 hrs. The experiment is classed as functional, organism-based. The following applies: ATCC 19606 = CIP 70.34 = JCM 6841.
Experiment [3] deals with Klebsiella pneumoniae. Nature of the experiment: Antibacterial activity against Klebsiella pneumoniae isolate FADDI-KP032 after 18 hrs by broth microdilution method. As to conditions: isolate FADDI-KP032, 18 h. The experiment is classed as functional.
In experiment [4] the test system is Klebsiella pneumoniae. The experiment can be described thus: Antibacterial activity against Klebsiella pneumoniae isolate FADDI-KP032 infected in mouse assessed as reduction in bacterial count in blood at 4 mg/kg, ip measured after 4 hrs. The experiment is classed as functional, organism-based.
Experiment [5] relates to Pseudomonas aeruginosa. The experiment can be described thus: Antibacterial activity against Pseudomonas aeruginosa ATCC 27853 after 18 hrs by broth microdilution method. The format is functional. The following applies: ATCC 27853, 18 h.
For experiment [6], the system named is Pseudomonas aeruginosa. Nature of the experiment: Antibacterial activity against Pseudomonas aeruginosa ATCC 27853 infected in mouse assessed as reduction in bacterial count in blood at 4 mg/kg, ip measured after 4 hrs. The format is functional.
The subject of experiment [7] is Klebsiella pneumoniae. The experiment can be described thus: Antibacterial activity against Klebsiella pneumoniae isolate FADDI-KP065 after 18 hrs by broth microdilution method. The format is functional. As to conditions: isolate FADDI-KP065, 18 h.
In experiment [8] the test system is Acinetobacter baumannii. Nature of the experiment: Antibacterial activity against Acinetobacter baumannii ATCC 17978 after 18 hrs by broth microdilution method. As to conditions: ATCC 17978, 18 h. The format is functional.
In experiment [9] the test system is Klebsiella pneumoniae. The experiment can be described thus: Antibacterial activity against Klebsiella pneumoniae ATCC 700721 after 18 hrs by broth microdilution method. The format is functional. The following applies: ATCC 700721, 18 h.
The subject of experiment [10] is Escherichia coli. The experiment can be described thus: Antibacterial activity against Escherichia coli isolate FADDI-EC006 after 18 hrs by broth microdilution method. The experiment is classed as functional. As to conditions: isolate FADDI-EC006, 18 h.
Experiment [11] concerns Acinetobacter baumannii. Nature of the experiment: Antibacterial activity against Acinetobacter baumannii isolate FADDI-AB034 after 18 hrs by broth microdilution method. The format is functional. As to conditions: isolate FADDI-AB034, 18 h.
Experiment [12] has as its system Pseudomonas aeruginosa. The experiment can be described thus: Antibacterial activity against Pseudomonas aeruginosa isolate FADDI-PA025 after 18 hrs by broth microdilution method. The experiment is classed as functional. As to conditions: isolate FADDI-PA025, 18 h.
Experiment [13] has as its system Escherichia coli. Nature of the experiment: Antibacterial activity against Escherichia coli isolate FADDI-EC001 after 18 hrs by broth microdilution method. The experiment is classed as functional. The following applies: isolate FADDI-EC001, 18 h.
Experiment [14] concerns Escherichia coli. The experiment can be described thus: Antibacterial activity against Escherichia coli isolate FADDI-EC003 after 18 hrs by broth microdilution method. The experiment is classed as functional. The following applies: isolate FADDI-EC003, 18 h.
The test system of experiment [15] is Klebsiella pneumoniae. Nature of the experiment: Antibacterial activity against Klebsiella pneumoniae ATCC 13883 after 18 hrs by broth microdilution method. The experiment is classed as functional. As to conditions: ATCC 13883, 18 h.
Experiment [16] relates to Klebsiella pneumoniae. The experiment can be described thus: Antibacterial activity against Klebsiella pneumoniae BM1 after 18 hrs by broth microdilution method. The experiment is classed as functional. The following applies: BM1, 18 h.
In experiment [17] the test system is Klebsiella pneumoniae. The experiment can be described thus: Antibacterial activity against Klebsiella pneumoniae isolate FADDI-KP022 after 18 hrs by broth microdilution method. The experiment is classed as functional. As to conditions: isolate FADDI-KP022, 18 h.
Experiment [18] concerns Pseudomonas aeruginosa. The experiment can be described thus: Antibacterial activity against Pseudomonas aeruginosa isolate FADDI-PA001 after 18 hrs by broth microdilution method. The format is functional. The following applies: isolate FADDI-PA001, 18 h.
Experiment [19] concerns Pseudomonas aeruginosa. Nature of the experiment: Antibacterial activity against Pseudomonas aeruginosa isolate FADDI-PA038 after 18 hrs by broth microdilution method. The following applies: isolate FADDI-PA038, 18 h. The experiment is classed as functional.
Experiment [20] deals with Acinetobacter baumannii. Nature of the experiment: Antibacterial activity against Acinetobacter baumannii isolate FADDI-AB030 after 18 hrs by broth microdilution method. The experiment is classed as functional. As to conditions: isolate FADDI-AB030, 18 h.
Experiment [21] deals with Pseudomonas aeruginosa. Nature of the experiment: Antibacterial activity against Pseudomonas aeruginosa isolate FADDI-PA022 after 18 hrs by broth microdilution method. The format is functional. As to conditions: isolate FADDI-PA022, 18 h.

The structures appear in SMILES notation. Converted amounts (≈) assume the structure as drawn. The source made the active and inactive calls. The rule behind the calls is not given here. Where a SMILES comes first, the peptide text is derived from it. Bridges are numbered along the chain shown (N, C = ends). [ ]: non-standard residue; d: D form. The star is where a group is joined. Heptanoyl(6-Me) = CC(C)CCCCC(=O)*; X1 = CC[C@H](C)CCCCC(=O)*; Dab = NCC[C@H](N)C(=O)O

As usually defined, the MIC is the lowest concentration found to suppress growth. A higher MIC goes with a less susceptible organism. As for `CC[C@H](C)CCCCC(=O)N[C@@H](CCN)C(=O)N[C@H](C(=O)N[C@@H](CCN)C(=O)N[C@H]1CCNC(=O)[C@H]([C@@H](C)O)NC(=O)[C@H](CCN)NC(=O)[C@H](CCN)NC(=O)[C@H](CC(C)C)NC(=O)[C@@H](Cc2ccccc2)NC(=O)[C@H](CCN)NC1=O)[C@@H](C)O` (X1-[Dab]T[Dab][Dab][Dab][dF]L[Dab][Dab]T; lactam 4-C), the MIC in the experiment on Acinetobacter baumannii [1], against Klebsiella pneumoniae [3] and against Pseudomonas aeruginosa [5] was 0.5 µg/mL (≈ 0.415 µM) each time. Further, the result in the experiment on Acinetobacter baumannii [2] and in the experiment on Klebsiella pneumoniae [4] was Active. The “log(activity)” value with Pseudomonas aeruginosa [6] is listed as -2.55.
With `CC[C@H](C)CCCCC(=O)N[C@@H](CCN)C(=O)N[C@H](C(=O)N[C@H](CO)C(=O)N[C@H]1CCNC(=O)[C@H]([C@@H](C)O)NC(=O)[C@H](CCN)NC(=O)[C@H](CCN)NC(=O)[C@H]([C@@H](C)O)NC(=O)[C@@H](CC(C)C)NC(=O)[C@H](CCN)NC1=O)[C@@H](C)O` (X1-[Dab]T[dS][Dab][Dab][dL]T[Dab][Dab]T; lactam 4-C), the MIC against Klebsiella pneumoniae [7], against Acinetobacter baumannii [1], against Acinetobacter baumannii [8], in the experiment with Klebsiella pneumoniae [9], in the experiment on Escherichia coli [10] and in the experiment on Acinetobacter baumannii [11] was 8 to 32 µg/mL (≈ 6.99 to 28 µM) throughout. Moreover, the MIC against Klebsiella pneumoniae [3], in the experiment on Pseudomonas aeruginosa [12], against Escherichia coli [13], against Pseudomonas aeruginosa [5], in the experiment with Escherichia coli [14] and in the experiment with Klebsiella pneumoniae [15] was 8 to 32 µg/mL (≈ 6.99 to 28 µM) each time. Moreover, the MIC in the experiment with Klebsiella pneumoniae [16], with Klebsiella pneumoniae [17], against Pseudomonas aeruginosa [18], in the experiment with Pseudomonas aeruginosa [19], against Acinetobacter baumannii [20] and in the experiment with Pseudomonas aeruginosa [21] was 8 to 32 µg/mL (≈ 6.99 to 28 µM) each time. The outcome in the experiment on Acinetobacter baumannii [2] and with Klebsiella pneumoniae [4] was Active. Further, in the experiment with Pseudomonas aeruginosa [6], the outcome was inactive.
Regarding `CC(C)CCCCC(=O)N[C@@H](CCN)C(=O)N[C@H](C(=O)N[C@H](CO)C(=O)N[C@H]1CCNC(=O)[C@H]([C@@H](C)O)NC(=O)[C@H](CCN)NC(=O)[C@H](CCN)NC(=O)[C@H]([C@@H](C)O)NC(=O)[C@@H](CC(C)C)NC(=O)[C@H](CCN)NC1=O)[C@@H](C)O` ({Heptanoyl(6-Me)}-[Dab]T[dS][Dab][Dab][dL]T[Dab][Dab]T; lactam 4-C), the minimal inhibitory concentration (MIC) in the experiment on Klebsiella pneumoniae [7], against Acinetobacter baumannii [1], against Acinetobacter baumannii [8], in the experiment with Klebsiella pneumoniae [9], against Escherichia coli [10] and in the experiment with Acinetobacter baumannii [11] was 8 to 32 µg/mL (≈ 7.08 to 28.3 µM) throughout. For the same molecule, the MIC in the experiment with Klebsiella pneumoniae [3], in the experiment with Pseudomonas aeruginosa [12], against Escherichia coli [13], in the experiment with Pseudomonas aeruginosa [5], with Escherichia coli [14] and with Klebsiella pneumoniae [15] was 8 to 32 µg/mL (≈ 7.08 to 28.3 µM) throughout. The minimum inhibitory concentration (MIC) in the experiment with Klebsiella pneumoniae [16], against Klebsiella pneumoniae [17], against Pseudomonas aeruginosa [18], against Pseudomonas aeruginosa [19], against Acinetobacter baumannii [20] and against Pseudomonas aeruginosa [21] was 8 to 32 µg/mL (≈ 7.08 to 28.3 µM) each time. Moreover, the result with Acinetobacter baumannii [2] and in the experiment on Klebsiella pneumoniae [4] was Active. The outcome in the experiment with Pseudomonas aeruginosa [6] was inactive.
As to `CC(C)CCCCC(=O)N[C@@H](CCN)C(=O)N[C@H](C(=O)N[C@@H](CCN)C(=O)N[C@H]1CCNC(=O)[C@H]([C@@H](C)O)NC(=O)[C@H](CCN)NC(=O)[C@H](CCN)NC(=O)[C@H](CC(C)C)NC(=O)[C@@H](Cc2ccccc2)NC(=O)[C@H](CCN)NC1=O)[C@@H](C)O` [POLYMYXIN B2] ({Heptanoyl(6-Me)}-[Dab]T[Dab][Dab][Dab][dF]L[Dab][Dab]T; lactam 4-C), the MIC in the experiment on Acinetobacter baumannii [1], with Klebsiella pneumoniae [3] and in the experiment on Pseudomonas aeruginosa [5] was 0.5 µg/mL (≈ 0.42 µM) in each case. Moreover, the result in the experiment with Acinetobacter baumannii [2] and in the experiment on Klebsiella pneumoniae [4] was Active. Besides, the “log(activity)” value with Pseudomonas aeruginosa [6] is -2.55.

Source of the values: ChEMBL document CHEMBL4118048, “Characterization of the Polymyxin D Synthetase Biosynthetic Cluster and Product Profile of Paenibacillus polymyxa ATCC 10401” (2017).
